In ChEMBL document CHEMBL4665836, “Overcoming β-Lactam resistance in Pseudomonas aeruginosa using non-canonical tobramycin-based antibiotic adjuvants” (2020):

Key:
Type in all cases: functional
[1] = test system: Pseudomonas aeruginosa; test: Potentiation of aztreonam-induced antibacterial activity against carbapenem-resistant Pseudomonas aeruginosa 262-101856 clinical isolate assessed as aztreonam MIC at 8.7 uM by checkerboard assay (reference value: 32 ug/ml)
[2] = test system: Pseudomonas aeruginosa; test: Potentiation of ceftazidime-induced antibacterial activity against carbapenem and colistin-resistant Pseudomonas aeruginosa 114228 clinical isolate assessed as ceftazidime MIC at 8.7 uM by checkerboard assay (reference value: 8 ug/ml)
[3] = test system: Pseudomonas aeruginosa; test: Potentiation of aztreonam-induced antibacterial activity against carbapenem-resistant Pseudomonas aeruginosa 100036 clinical isolate assessed as aztreonam MIC at 8.7 uM by checkerboard assay (reference value: 16 ug/ml)
[4] = test system: Pseudomonas aeruginosa; test: Potentiation of ceftazidime-induced antibacterial activity against carbapenem-resistant Pseudomonas aeruginosa PAO750 harboring mexAB-oprM/mexCD-oprJ/mexEF-oprN/mexJK/mexXY/opmH efflux deficient mutant assessed as ceftazidime MIC at 8.7 uM by checkerboard assay (reference value: 0.5 ug/ml)
[5] = test system: Pseudomonas aeruginosa; test: Potentiation of aztreonam-induced antibacterial activity against carbapenem and colistin-resistant Pseudomonas aeruginosa 101243 clinical isolate assessed as aztreonam MIC at 8.7 uM by checkerboard assay (reference value: 32 ug/ml)
[6] = test system: Pseudomonas aeruginosa; test: Potentiation of aztreonam-induced antibacterial activity against carbapenem and colistin-resistant Pseudomonas aeruginosa 114228 clinical isolate assessed as aztreonam MIC at 8.7 uM by checkerboard assay (reference value: 32 ug/ml)
[7] = test system: Pseudomonas aeruginosa; test: Potentiation of ceftazidime-induced antibacterial activity against wild-type Pseudomonas aeruginosa PAO1 assessed as ceftazidime MIC at 8.7 uM by checkerboard assay (reference value: 2 ug/ml)
[8] = test system: Pseudomonas aeruginosa; test: Potentiation of aztreonam-induced antibacterial activity against carbapenem-resistant Pseudomonas aeruginosa 86052 clinical isolate assessed as aztreonam MIC at 8.7 uM by checkerboard assay (reference value: 64 ug/ml)
[9] = test system: Pseudomonas aeruginosa; test: Potentiation of ceftazidime-induced antibacterial activity against carbapenem-resistant Pseudomonas aeruginosa 260-97103 clinical isolate assessed as ceftazidime MIC at 8.7 uM by checkerboard assay (reference value: 32 ug/ml)
[10] = test system: Pseudomonas aeruginosa; test: Potentiation of ceftazidime-induced antibacterial activity against carbapenem-resistant Pseudomonas aeruginosa 107092 clinical isolate assessed as ceftazidime MIC at 8.7 uM by checkerboard assay (reference value: 128 ug/ml)
[11] = test system: Pseudomonas aeruginosa; test: Potentiation of aztreonam-induced antibacterial activity against carbapenem-resistant Pseudomonas aeruginosa 108590 clinical isolate assessed as aztreonam MIC at 8.7 uM by checkerboard assay (reference value: 32 ug/ml)
[12] = test system: Pseudomonas aeruginosa; test: Potentiation of ceftazidime-induced antibacterial activity against carbapenem-resistant Pseudomonas aeruginosa 100036 clinical isolate assessed as ceftazidime MIC at 8.7 uM by checkerboard assay (reference value: 8 ug/ml)

## NC[C@H]1O[C@H](O[C@H]2[C@H](OCCCCCCCCN3CCCNCCNCCCNCC3)[C@@H](O[C@H]3O[C@H](CO)[C@@H](O)[C@H](N)[C@H]3O)[C@H](N)C[C@@H]2N)[C@H](N)C[C@@H]1O.O=C(O)C(F)(F)F.O=C(O)C(F)(F)F.O=C(O)C(F)(F)F.O=C(O)C(F)(F)F.O=C(O)C(F)(F)F.O=C(O)C(F)(F)F.O=C(O)C(F)(F)F.O=C(O)C(F)(F)F.O=C(O)C(F)(F)F
[1]
  MIC: 8 mg/L
[2]
  MIC: 1 mg/L
[3]
  MIC: 2 mg/L
[4]
  MIC: 0.06 mg/L
[5]
  MIC: 8 mg/L
[6]
  MIC: 4 mg/L
[7]
  MIC: 0.25 mg/L
[8]
  MIC: 16 mg/L
[9]
  MIC: 16 mg/L
[10]
  MIC: 32 mg/L
[11]
  MIC: 8 mg/L
[12]
  MIC: 2 mg/L
